Assay results from PubChem BioAssay (NCI).
“And” between values parts separate entries of the source, which are not always exact repeats. Equal entries are not always repeated.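 96-well plates; 48 h exposure; 5 concentrations. Endpoints by linear interpolation between flanking doses. Not reached: highest tested concentration assigned. Here, GI50 denotes the concentration required for 50% inhibition of growth. The concentration for full growth arrest is given as TGI.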

Key:
Assay in all cases: NCI-60 cell line screen, 48 h
MDA-N = system: MDA-N
SR leukemia = system: SR leukemia
SNB-75 CNS = system: SNB-75 CNS
CAKI-1 renal = system: CAKI-1 renal
HS 578T breast = system: HS 578T breast
SF-295 CNS = system: SF-295 CNS
DU-145 prostate = system: DU-145 prostate
ACHN renal = system: ACHN renal
PC-3 prostate = system: PC-3 prostate
HCT-15 colon = system: HCT-15 colon

SMILES	TGI (MDA-N)	TGI (SR leukemia)	TGI (SNB-75 CNS)	TGI (CAKI-1 renal)	TGI (HS 578T breast)	TGI (SF-295 CNS)	TGI (DU-145 prostate)	TGI (ACHN renal)	TGI (PC-3 prostate)	GI50 (HS 578T breast)	GI50 (DU-145 prostate)	GI50 (PC-3 prostate)	TGI (HCT-15 colon)	GI50 (SR leukemia)	GI50 (CAKI-1 renal)	GI50 (SNB-75 CNS)	GI50 (HCT-15 colon)	GI50 (ACHN renal)	GI50 (SF-295 CNS)
COC(=O)C1=CSC2(S1)C(C(=O)OC)=CSc1c2ssc1=Nc1ccccc1 (stereo unspecified)	> 100 µM	3.56 µM	6.09 µM	32.9 µM	8.34 µM	7.09 µM	16.2 µM	6.57 µM	> 100 µM	–	–	–	–	–	–	–	–	–	–
CC(=O)C(O)N1C(=O)C=CC1=O (stereo unspecified)	25 µM	–	–	–	–	–	–	–	–	15800 µM	11700 µM	2470 µM	–	–	–	–	–	–	–
CCCCCCNC(=O)c1cnc(Cl)cn1	–	16.6 µM	49.1 µM	2.39 µM	44.4 µM	39.4 µM	29.6 µM	8.49 µM	22.8 µM	–	–	–	7.25 µM	–	–	–	–	–	–
COc1ccc(N2C(=O)C3c4[nH]c5c(C)cccc5c4C4CCC(C(C)(C)C)CC4C3C2=O)cc1 (stereo unspecified)	> 10 µM	> 10 µM	> 10 µM	> 10 µM	> 10 µM	> 10 µM	> 10 µM	> 10 µM	> 10 µM	–	–	–	> 10 µM	–	–	–	–	–	–
NC(=O)CCCC(NCc1c2ccccc2nc2ccccc12)C(=O)O (stereo unspecified)	–	> 100 µM	> 100 µM	96.2 µM	–	> 100 µM	–	> 100 µM	–	–	–	–	> 100 µM	–	–	–	–	–	–
COc1ccc([C@@H]2ON(C)[C@H]3CN(C)C(=O)[C@@H]23)cc1	> 100 µM	> 100 µM	> 100 µM	> 100 µM	> 100 µM	> 100 µM	> 100 µM	> 100 µM	> 100 µM	–	–	–	> 100 µM	–	–	–	–	–	–
CN1CCCCC1CCN1CCCCC1 (stereo unspecified)	> 100 µM	–	> 100 µM	> 100 µM	> 100 µM	> 100 µM	> 100 µM	> 100 µM	> 100 µM	–	–	–	> 100 µM	–	–	–	–	–	–
Cc1ccccc1N=Nc1ccc(N=Nc2c(O)ccc3ccccc23)c(C)c1	–	–	> 100 µM	> 100 µM	> 100 µM	> 100 µM	> 100 µM	> 100 µM	> 100 µM	–	–	–	> 100 µM	–	–	–	–	–	–
CCCCCCCSc1nc2c(C(=O)OCC)ncn2c2ccccc12	–	> 100 µM	–	–	–	> 100 µM	–	> 100 µM	–	–	–	–	> 100 µM	–	–	–	–	–	–
CC1C(O)C2(Oc3cc4c(c5c3[C@@H](CC5O)[C@H]2C)CCC2Cc3nc5c(nc3C[C@@]42C)CC2CCC3C4=C[C@H]6O[C@@]7(O[C@@](C)(CO)C[C@@H]7O)C(C)[C@@]6(O)[C@]4(C)[C@@H](O)CC3[C@]2(C)C5)OC1(C)C (stereo partly specified)	–	–	0.0842 µM	0.975 µM	–	0.105 µM	–	–	–	–	–	–	> 3.67 µM	–	–	–	–	–	–
Cc1cc(NCc2cc(Nc3ccnc4cc(Cl)ccc34)ccc2F)nc(N2CCCC2)n1	–	1.12 µM	–	2.98 µM	4.6 µM	–	4.46 µM	–	–	1.61 µM	1.94 µM	–	–	0.265 µM	1.47 µM	–	–	–	–
O=C1c2c(c3c4ccccc4[nH]c3c3ccc4ccccc4c23)C(=O)N1CCN1CCCCC1	–	–	22.6 µM	–	5.71 µM	–	14.5 µM	2.26 µM	24.7 µM	2.04 µM	1.05 µM	1.68 µM	3.38 µM	–	–	2.2 µM	0.963 µM	0.335 µM	–
Cc1ccc(S(=O)(=O)NCCSCCNS(=O)(=O)c2ccc(C)cc2)cc1	> 100 µM	> 100 µM	> 100 µM	–	> 100 µM	> 100 µM	> 100 µM	> 100 µM	> 100 µM	–	–	–	> 100 µM	–	–	–	–	–	–
NC(=O)NN=C(CS)CS	–	–	> 75.3 µM	42.9 µM	–	49.5 µM	–	–	–	–	–	–	51.9 µM	–	–	–	–	–	–
Cc1sc(Cc2ccccc2)nc1-c1ccc(N)cc1	–	–	–	83.8 µM	> 100 µM	> 100 µM	–	> 100 µM	89.7 µM	–	–	–	46.9 µM	–	–	–	–	–	–
Cc1c2cc[n+](CCN3CCCCC3)cc2c(C)c2c1[nH]c1ccc(O)cc12	51 µM	3.49 µM	5.4 µM and 18.7 µM	24.3 µM and > 100 µM	> 100 µM	18.4 µM and > 100 µM	11.5 µM	22.9 µM	28.6 µM	–	–	–	75 µM and > 100 µM	–	21.1 µM	2.7 µM	–	–	5.43 µM
CN(C)c1ccc(/C=N\NC(=O)CSCC(=O)N/N=C/c2ccc(N(C)C)cc2)cc1	–	> 100 µM	> 100 µM	> 100 µM	82.1 µM	> 100 µM	> 100 µM	> 100 µM	> 100 µM	–	–	–	53.2 µM	–	–	–	–	–	–
O=c1ccc2cc(O)c(O)cc2o1	> 100 µM	> 100 µM	> 100 µM	> 100 µM	> 100 µM	> 100 µM	> 100 µM	> 100 µM	> 100 µM	–	–	–	> 100 µM	–	–	–	–	–	–
CN(C)CCNc1nc(-c2ccc3ccccc3c2)nc2nc[nH]c12	23.2 µM	24.7 µM	4.44 µM	20.6 µM	22.8 µM	26.9 µM	23.7 µM	11.9 µM	18.4 µM	–	–	–	18.3 µM	–	–	–	–	–	–
C[C@@H]1CC[C@H]2C(COCCOCC3=C(C(F)(F)F)O[C@@H]4O[C@@]5(C)CC[C@H]6[C@H](C)CC[C@@H]3[C@@]46OO5)=C(C(F)(F)F)O[C@@H]3O[C@@]4(C)CC[C@@H]1[C@]32OO4	–	> 100 µM	> 100 µM	> 12.9 µM	> 100 µM	–	> 100 µM	> 10.3 µM	> 100 µM	–	> 100 µM	< 0.01 µM	> 13.8 µM	0.0116 µM	0.304 µM	> 4.64 µM	0.0264 µM	0.0797 µM	–
NC(N)=N/N=C/c1c(-c2ccccc2)nc2n1ccc1nc(-c3ccccc3)c(/C=N/N=C(N)N)n12	–	–	> 100 µM	> 100 µM	> 100 µM	> 100 µM	> 100 µM	> 100 µM	> 100 µM	–	–	–	> 100 µM	–	–	–	–	–	–
CC1=NN(c2ccccc2)C(=O)/C1=C/c1ccc(O)cc1	> 100 µM	> 100 µM	–	> 100 µM	> 100 µM	> 100 µM	> 100 µM	> 100 µM	> 100 µM	–	–	–	> 100 µM	–	–	–	–	–	–
CC1=C2C(=O)c3ccccc3C(=O)[C@H]2[C@H]2CCO[C@H]2O1	36.6 µM	> 100 µM	43 µM	46 µM	> 100 µM	48.9 µM	47 µM	45.5 µM	> 100 µM	–	–	–	86 µM	–	–	–	–	–	–
C/C=C/[P+](c1ccccc1)(c1ccccc1)c1ccccc1	10.6 µM	2.58 µM	19.9 µM	> 100 µM	3.17 µM	12 µM	18.6 µM	62.5 µM	> 63.8 µM	–	–	–	> 100 µM	–	–	–	–	–	–
Cc1ccc(Oc2ccc(C)cc2[N+](=O)[O-])cc1	–	> 100 µM	> 100 µM	–	–	> 100 µM	–	> 100 µM	–	–	–	–	> 100 µM	–	–	–	–	–	–
